In patent US8093281B2, “Indazoles as glucocorticoid receptor ligands” (Glaxo Group Limited, priority 2005, dated 2012):

The compounds below were run on NFkB activity (assay: Glucocorticoid mediated transrepression of NFkB activity (A549 cells, ELAM promoter alkaline phosphatase reporter, TNFα stimulated)). Details: Homo sapiens, A549, 16 h, Human A549 lung epithelial cells, 3 ng/ml human recombinant TNFα, read-out: pEC50, transrepression of NFkB activity (converted).
Assay type: cell-based
Description: Human A549 lung epithelial cells were engineered to contain a secreted placental alkaline phosphatase gene under the control of the distal region of the NFkB dependent ELAM promoter as previously described in Ray, K. P., Farrow, S., Daly, M., Talabot, F. and Searle, N. “Induction of the E-selectin promoter by interleukin 1 and tumour necrosis factor alpha, and inhibition by glucocorticoids” Biochemical Journal (1997) 328: 707-15.
Compounds were solvated and diluted in DMSO, and transferred directly into assay plates such that the final concentration of DMSO was 0.7%. Following the addition of cells (40K per well), plates were incubated for 1 hr prior to the addition of 3 ng/ml human recombinant TNFα. Following continued incubation for 16 hr, alkaline phosphatase activity was determined by measuring the change in optical density at 405 nm with time following the addition of 0.7 volumes of assay buffer (1 mg/ml p-nitrophenylphosphate dissolved in 1M diethanolamine, 0.28M NaCl, 0.5 mM MgCl2). Dose response curves were constructed from which EC50 values were estimated.

| EC50 [nM] | SMILES |
| --- | --- |
| < 3.16 | COc1ccc(F)cc1C(C)(C)CC(O)(CNc1cc(C)cc2c1cnn2-c1ccc(F)cc1F)C(F)(F)F (racemic) [Example 16, 2-({[1-(2,4-Difluorophenyl)-6-methyl-1H-indazol-4-yl]amino}methyl)-1,1,1-trifluoro-4-[5-fluoro-2-(methyloxy)phenyl]-4-methyl-2-pentanol] |
| < 3.16 | COc1ccc(-n2ncc3c(NCC(O)(CC(C)(C)c4cc(F)ccc4OC)C(F)(F)F)cc(C)cc32)cc1 (stereo not drawn) [Example 19, 1,1,1-Trifluoro-4-[5-fluoro-2-(methyloxy)phenyl]-4-methyl-2-[({6-methyl-1-[4-(methyloxy)phenyl]-1H-indazol-4-yl}amino)methyl]-2-pentanol] |
| < 3.16 | COc1ccc(-n2ncc3c(NCC(O)(CC(C)(C)c4cccc5c4OCC5)C(F)(F)F)cccc32)cc1 (racemic) [Example 28, 4-(2,3-Dihydro-1-benzofuran-7-yl)-1,1,1-trifluoro-4-methyl-2-[({1-[4-(methyloxy)phenyl]-1H-indazol-4-yl}amino)methyl]-2-pentanol] |
| < 3.16 | CC(C)(CC(O)(CNc1cccc2c1cnn2-c1ccccc1F)C(F)(F)F)c1cccc2c1OCC2 (racemic) [Example 10, 4-(2,3-Dihydro-1-benzofuran-7-yl)-1,1,1-trifluoro-2-({[1-(2-fluorophenyl)-1H-indazol-4-yl]amino}methyl)-4-methyl-2-pentanol] |
| < 3.16 | COc1ccc(F)cc1C(C)(C)CC(O)(CNc1cccc2c1cnn2-c1ccccc1F)C(F)(F)F (single isomer, unassigned) [Example 1-A, 1,1,1-Trifluoro-4-[5-fluoro-2-(methyloxy)phenyl]-2-({[1-(2-fluorophenyl)-1H-indazol-4-yl]amino}methyl)-4-methyl-2-pentanol] |
| < 3.16 | COc1ccc(F)cc1C(C)(C)CC(O)(CNc1cc(C)cc2c1cnn2-c1cccc(O)c1)C(F)(F)F (stereo not drawn) [Example 23, 3-(4-{[4-[5-Fluoro-2-(methyloxy)phenyl]-2-hydroxy-4-methyl-2-(trifluoromethyl)pentyl]amino}-6-methyl-1H-indazol-1-yl)phenol] |
| < 3.16 | COc1ccc(F)cc1C(C)(C)CC(O)(CNc1cccc2c1cnn2-c1ccc(F)cc1F)C(F)(F)F (racemic) [Example 4, 2-({[1-(2,4-Difluorophenyl)-1H-indazol-4-yl]amino}methyl)-1,1′-trifluoro-4-[5-fluoro-2-(methyloxy)phenyl]-4-methyl-2-pentanol] |
| < 3.16 | CC(C)(CC(O)(CNc1cccc2c1cnn2-c1ccccc1)C(F)(F)F)c1cccc2c1OCC2 (racemic) [Example 8, 4-(2,3-Dihydro-1-benzofuran-7-yl)-1,1,1-trifluoro-4-methyl-2-{[(1-phenyl-1H-indazol-4-yl)amino]methyl}-2-pentanol] |
| < 3.16 | CC(C)(CC(O)(CNc1cccc2c1cnn2-c1ccc(F)cc1F)C(F)(F)F)c1cccc2c1OCC2 (racemic) [Example 12, 2-({[1-(2,4-Difluorophenyl)-1H-indazol-4-yl]amino}methyl)-4-(2,3-dihydro-1-benzofuran-7-yl)-1,1,1-trifluoro-4-methyl-2-pentanol] |
| < 3.16 | CCOC(=O)c1cccc(-n2ncc3c(NCC(O)(CC(C)(C)c4cc(F)ccc4OC)C(F)(F)F)cc(C)cc32)c1 (stereo not drawn) [Example 27, Ethyl 3-(4-{[4-[5-fluoro-2-(methyloxy)phenyl]-2-hydroxy-4-methyl-2-(trifluoromethyl)pentyl]amino}-6-methyl-1H-indazol-1-yl)benzoate] |
| < 3.16 | COc1ccc(F)cc1C(C)(C)CC(O)(CNc1cccc2c1cnn2-c1ccc(F)cc1)C(F)(F)F (single isomer, unassigned) [Example 2-B, 1,1,1-Trifluoro-4-[5-fluoro-2-(methyloxy)phenyl]-2-({[1-(4-fluorophenyl)-1H-indazol-4-yl]amino}methyl)-4-methyl-2-pentanol] |
| < 3.16 | COc1ccc(F)cc1C(C)(C)CC(O)(CNc1cc(C)cc2c1cnn2-c1ccccc1)C(F)(F)F (racemic) [Example 15, 1,1,1-Trifluoro-4-[5-fluoro-2-(methyloxy)phenyl]-4-methyl-2-{[(6-methyl-1-phenyl-1H-indazol-4-yl)amino]methyl}-2-pentanol] |
| < 3.16 | COc1ccc(F)cc1C(C)(C)CC(O)(CNc1cc(C)cc2c1cnn2-c1ccccc1F)C(F)(F)F (racemic) [Example 25, 1,1,1-Trifluoro-4-[5-fluoro-2-(methyloxy)phenyl]-2-({[1-(2-fluorophenyl)-6-methyl-1H-indazol-4-yl]amino}methyl)-4-methyl-2-pentanol] |
| < 3.16 | COC(=O)c1cccc(-n2ncc3c(NCC(O)(CC(C)(C)c4cc(F)ccc4OC)C(F)(F)F)cccc32)c1 (racemic) [Example 14, Methyl 3-(4-{[4-[5-fluoro-2-(methyloxy)phenyl]-2-hydroxy-4-methyl-2-(trifluoromethyl)pentyl]amino}-1H-indazol-1-yl)benzoate] |
| < 3.16 | Cc1cc(NC[C@](O)(CC(C)(C)c2cc(F)ccc2O)C(F)(F)F)c2cnn(-c3ccc(F)cc3F)c2c1 [Example 18, 2(R)-2-[3-({[1-(2,4-Difluorophenyl)-6-methyl-1H-indazol-4-yl]amino}methyl)-4,4,4-trifluoro-3-hydroxy-1,1-dimethylbutyl]-4-fluorophenol] |
| < 3.16 | COC(=O)c1cccc(-n2ncc3c(NCC(O)(CC(C)(C)c4cc(F)ccc4OC)C(F)(F)F)cccc32)c1 (single isomer, unassigned) [Example 14-B, Methyl 3-(4-{[4-[5-fluoro-2-(methyloxy)phenyl]-2-hydroxy-4-methyl-2-(trifluoromethyl)pentyl]amino}-1H-indazol-1-yl)benzoate] |
| < 3.16 | CC(C)(CC(O)(CNc1cccc2c1cnn2-c1ccc(F)cc1)C(F)(F)F)c1cccc2c1OCC2 (racemic) [Example 11, 4-(2,3-Dihydro-1-benzofuran-7-yl)-1,1,1-trifluoro-2-({[1-(4-fluorophenyl)-1H-indazol-4-yl]amino}methyl)-4-methyl-2-pentanol] |
| < 3.16 | CCOC(=O)c1cccc(-n2ncc3c(NCC(O)(CC(C)(C)c4cccc5c4OCC5)C(F)(F)F)cccc32)c1 (racemic) [Example 9, Ethyl 3-(4-{[4-(2,3-dihydro-1-benzofuran-7-yl)-2-hydroxy-4-methyl-2-(trifluoromethyl)pentyl]amino}-1H-indazol-1-yl)benzoate] |
| < 3.16 | COc1cccc(-n2ncc3c(NCC(O)(CC(C)(C)c4cc(F)ccc4OC)C(F)(F)F)cc(C)cc32)c1 (stereo not drawn) [Example 22, 1,1,1-Trifluoro-4-[5-fluoro-2-(methyloxy)phenyl]-4-methyl-2-[({6-methyl-1-[3-(methyloxy)phenyl]-1H-indazol-4-yl}amino)methyl]-2-pentanol] |
| < 3.16 | CC(C)(CC(O)(CNc1cccc2c1cnn2-c1ccncc1)C(F)(F)F)c1cccc2c1OCC2 (racemic) [Example 13, 4-(2,3-Dihydro-1-benzofuran-7-yl)-1,1,1-trifluoro-4-methyl-2-({[1-(4-pyridinyl)-1H-indazol-4-yl]amino}methyl)-2-pentanol] |
| < 3.16 | COc1ccc(F)cc1C(C)(C)CC(O)(CNc1cccc2c1cnn2-c1ccc(F)cc1)C(F)(F)F (racemic) [Example 2, 1,1,1-Trifluoro-4-[5-fluoro-2-(methyloxy)phenyl]-2-({[1-(4-fluorophenyl)-1H-indazol-4-yl]amino}methyl)-4-methyl-2-pentanol] |
| < 3.16 | COc1ccc(F)cc1C(C)(C)CC(O)(CNc1cccc2c1cnn2-c1ccccc1F)C(F)(F)F (racemic) [Example 1, 1,1,1-Trifluoro-4-[5-fluoro-2-(methyloxy)phenyl]-2-({[1-(2-fluorophenyl)-1H-indazol-4-yl]amino}methyl)-4-methyl-2-pentanol] |
| < 3.16 | CCOC(=O)c1cccc(-n2ncc3c(NCC(O)(CC(C)(C)c4cc(F)ccc4OC)C(F)(F)F)cccc32)c1 (single isomer, unassigned) [Example 6-B, Ethyl 3-(4-{[4-[5-fluoro-2-(methyloxy)phenyl]-2-hydroxy-4-methyl-2-(trifluoromethyl)pentyl]amino}-1H-indazol-1-yl)benzoate] |
| < 3.16 | CCOC(=O)c1cccc(-n2ncc3c(NCC(O)(CC(C)(C)c4cc(F)ccc4OC)C(F)(F)F)cccc32)c1 (racemic) [Example 6, Ethyl 3-(4-{[4-[5-fluoro-2-(methyloxy)phenyl]-2-hydroxy-4-methyl-2-(trifluoromethyl)pentyl]amino}-1H-indazol-1-yl)benzoate] |
